In brackets after ≈: the same amount, converted by molar mass.
How the values were obtained:
[1] = system: Poliovirus type 1 (Polio 1, Sabin); assay: microbe, parasite or virus in culture; format: cell-based
[2] = system: echovirus type 11 (Echo 11, Gregory); assay: In vitro anti-picornavirus activity (MTT), Echo 11; format: cell-based; conditions: HeLa-S3 cells, MTT method, 37° C.
[3] = system: coxsackievirus type A7 (CA7); assay: In vitro anti-picornavirus activity (MTT), CA7; format: cell-based; conditions: HeLa-S3 cells, MTT method, 37° C.
[4] = system: coxsackievirus type B4 (CB4,JVB); assay: In vitro anti-picornavirus activity (MTT), CB4; format: cell-based; conditions: HeLa cells, MTT method, 37° C.
[5] = system: HRV1A (E28); assay: Anti-rhinovirus activity (MTT), HRV1A; format: cell-based, human rhinovirus; parameters: Anti-Rhinovirus activity, HRV1A: unit not given here; conditions: for IC50 HRV 1A: HeLa (Ohio strain) cells, MTT method, 33° C.
[6] = system: human rhinovirus type 1B (HRV 1B, B632); assay: Anti-rhinovirus activity (MTT), HRV1B; format: cell-based; parameters: Anti-Rhinovirus activity, HRV1B: unit not given here; conditions: for IC50 HRV1B: HeLa (Ohio strain) cells, MTT method, 33° C.
[7] = system: HRV 2 (HGP); assay: Anti-rhinovirus activity (MTT), HRV2; format: cell-based, human rhinovirus; parameters: Anti-Rhinovirus activity, HRV2: unit not given here; conditions: for IC50 HRV2: HeLa (Ohio strain) cells, MTT method, 33° C.
[8] = system: HRV14 (1059); assay: Anti-rhinovirus activity (MTT), HRV14; format: cell-based, human rhinovirus; parameters: Anti-Rhinovirus activity, HRV14: unit not given here; conditions: for IC50 HRV 14: HeLa (Ohio strain) cells, MTT method, 33° C.
[9] = system: HRV 89 (41617-Gallo); assay: Anti-rhinovirus activity (MTT), HRV89; format: cell-based, human rhinovirus; parameters: Anti-Rhinovirus activity, HRV89: unit not given here; conditions: for IC50 HRV89: HeLa (Ohio strain) cells, MTT method, 33° C.
[10] = system: HRV3(FEB); assay: Anti-rhinovirus spectrum (MTT), HRV3; format: cell-based, human rhinovirus; parameters: Anti-Rhinovirus activity, HRV3: unit not given here; conditions: HRV3
[11] = system: HRV5; assay: Anti-rhinovirus spectrum (MTT), HRV5; format: cell-based, human rhinovirus; parameters: Anti-Rhinovirus activity, HRV5: unit not given here; conditions: HRV5
[12] = system: HRV8(MRH); assay: Anti-rhinovirus spectrum (MTT), HRV8; format: cell-based, human rhinovirus; parameters: Anti-Rhinovirus activity, HRV8: unit not given here; conditions: HRV8
[13] = system: HRV10 (204-CV14); assay: Anti-rhinovirus spectrum (MTT), HRV10; format: cell-based, human rhinovirus; parameters: Anti-Rhinovirus activity, HRV10: unit not given here; conditions: HRV10
[14] = system: HRV13 (353); assay: Anti-rhinovirus spectrum (MTT), HRV13; format: cell-based, human rhinovirus; parameters: Anti-Rhinovirus activity, HRV13: unit not given here; conditions: HRV13
[15] = system: HRV16 (11757); assay: Anti-rhinovirus spectrum (MTT), HRV16; format: cell-based, human rhinovirus; parameters: Anti-Rhinovirus activity, HRV16: unit not given here; conditions: HRV16
[16] = system: HRV21 (47); assay: Anti-rhinovirus spectrum (MTT), HRV21; format: cell-based, human rhinovirus; parameters: Anti-Rhinovirus activity, HRV21: unit not given here; conditions: HRV21
[17] = system: HRV29 (5582); assay: Anti-rhinovirus spectrum (MTT), HRV29; format: cell-based, human rhinovirus; parameters: Anti-Rhinovirus activity, HRV29: unit not given here; conditions: HRV29
[18] = system: HRV31 (41F); assay: Anti-rhinovirus spectrum (MTT), HRV31; format: cell-based, human rhinovirus; parameters: Anti-Rhinovirus activity, HRV31: unit not given here; conditions: HRV31
[19] = system: HRV32 (363); assay: Anti-rhinovirus spectrum (MTT), HRV32; format: cell-based, human rhinovirus; parameters: Anti-Rhinovirus activity, HRV32: unit not given here; conditions: HRV32
[20] = system: HRV33 (1200); assay: Anti-rhinovirus spectrum (MTT), HRV33; format: cell-based, human rhinovirus; parameters: Anti-Rhinovirus activity, HRV33: unit not given here; conditions: HRV33
[21] = system: HRV36 (342H); assay: Anti-rhinovirus spectrum (MTT), HRV36; format: cell-based, human rhinovirus; parameters: Anti-Rhinovirus activity, HRV36: unit not given here; conditions: HRV36
[22] = system: HRV39 (209); assay: Anti-rhinovirus spectrum (MTT), HRV39; format: cell-based, human rhinovirus; parameters: Anti-Rhinovirus activity, HRV39: unit not given here; conditions: HRV39
[23] = system: HRV41 (56110); assay: Anti-rhinovirus spectrum (MTT), HRV41; format: cell-based, human rhinovirus; parameters: Anti-Rhinovirus activity, HRV41: unit not given here; conditions: HRV41
[24] = system: HRV50(A2#58); assay: Anti-rhinovirus spectrum (MTT), HRV50; format: cell-based, human rhinovirus; parameters: Anti-Rhinovirus activity, HRV50: unit not given here; conditions: HRV50
[25] = system: HRV61 (6669-CV39); assay: Anti-rhinovirus spectrum (MTT), HRV61; format: cell-based, human rhinovirus; parameters: Anti-Rhinovirus activity, HRV61: unit not given here; conditions: HRV61
[26] = system: clinical isolate (89229T); assay: microbe, parasite or virus in culture; format: cell-based, human rhinovirus; parameters: Anti-Rhinovirus activity, Clinical isolated strain: unit not given here; conditions: Clinical isolated strain
[27] = system: HeLa cells; assay: Cytotoxicity (MTT, without virus), HeLa; conditions: HeLa, no virus, incubated for 4 days
[28] = system: HeLa-S3 cells; assay: Cytotoxicity (MTT, without virus), HeLa-S3; conditions: HeLa-S3, no virus, incubated for 4 days
[29] = system: HeLa (Ohio strain)cells; assay: Cytotoxicity (MTT, without virus), HeLa(Ohio); conditions: HeLa(Ohio), no virus, incubated for 4 days

CCn1c2c(c(=O)c3cc(C(C)C)ccc31)Cc1ccccc1-2.Cl [Compound B3]
IC50 Polio 1 [1]: 0.72 µg/mL
IC50 Echo 11 [2]: 0.35 µg/mL
IC50 CA7 [3]: 2.1 µg/mL
IC50 CB4 [4]: 0.82 µg/mL
Anti-Rhinovirus activity, HRV1A [5]: 2.6
IC50 HRV 1A [5]: 2.6 µg/mL
Anti-Rhinovirus activity, HRV1B [6]: 0.30
IC50 HRV1B [6]: 0.30 µg/mL
Anti-Rhinovirus activity, HRV2 [7]: 0.54
IC50 HRV2 [7]: 0.54 µg/mL
Anti-Rhinovirus activity, HRV14 [8]: 0.74
IC50 HRV 14 [8]: 0.74 µg/mL
Anti-Rhinovirus activity, HRV89 [9]: 0.57
IC50 HRV89 [9]: 0.57 µg/mL
Anti-Rhinovirus activity, HRV3 [10]: 2.9
Anti-Rhinovirus activity, HRV5 [11]: 0.36
Anti-Rhinovirus activity, HRV8 [12]: 0.46
Anti-Rhinovirus activity, HRV10 [13]: 1.8
Anti-Rhinovirus activity, HRV13 [14]: 0.17
Anti-Rhinovirus activity, HRV16 [15]: 2.3
Anti-Rhinovirus activity, HRV21 [16]: 0.20
Anti-Rhinovirus activity, HRV29 [17]: 1.5
Anti-Rhinovirus activity, HRV31 [18]: 0.29
Anti-Rhinovirus activity, HRV32 [19]: 0.61
Anti-Rhinovirus activity, HRV33 [20]: 0.20
Anti-Rhinovirus activity, HRV36 [21]: 0.30
Anti-Rhinovirus activity, HRV39 [22]: 1.7
Anti-Rhinovirus activity, HRV41 [23]: 0.20
Anti-Rhinovirus activity, HRV50 [24]: 0.20
Anti-Rhinovirus activity, HRV61 [25]: 0.80
Anti-Rhinovirus activity, Clinical isolated strain [26]: 1.9
Cytotoxicity CC50 HeLa [27]: >4 µg/mL
Cytotoxicity CC50 HeLa-S3 [28]: >4 µg/mL
Cytotoxicity CC50 HeLa(Ohio) [29]: >4 µg/mL

CCn1c2c(c(=O)c3c(C(C)C)c(OC)ccc31)Cc1ccccc1-2 [Compound B7]
IC50 Polio 1 [1]: 0.42 µg/mL (≈ 1.26 µM)
IC50 Echo 11 [2]: 0.25 µg/mL (≈ 0.75 µM)
IC50 CA7 [3]: 1.4 µg/mL (≈ 4.2 µM)
IC50 CB4 [4]: 0.52 µg/mL (≈ 1.56 µM)
Anti-Rhinovirus activity, HRV1A [5]: 1.7
IC50 HRV 1A [5]: 1.7 µg/mL (≈ 5.1 µM)
Anti-Rhinovirus activity, HRV1B [6]: 0.20
IC50 HRV1B [6]: 0.17 µg/mL (≈ 0.51 µM)
Anti-Rhinovirus activity, HRV2 [7]: 0.36
IC50 HRV2 [7]: 0.36 µg/mL (≈ 1.08 µM)
Anti-Rhinovirus activity, HRV14 [8]: 0.49
IC50 HRV 14 [8]: 0.49 µg/mL (≈ 1.47 µM)
Anti-Rhinovirus activity, HRV89 [9]: 0.30
IC50 HRV89 [9]: 0.30 µg/mL (≈ 0.9 µM)
Anti-Rhinovirus activity, HRV3 [10]: 0.49
Anti-Rhinovirus activity, HRV5 [11]: 0.22
Anti-Rhinovirus activity, HRV8 [12]: 0.32
Anti-Rhinovirus activity, HRV10 [13]: 0.41
Anti-Rhinovirus activity, HRV13 [14]: 0.13
Anti-Rhinovirus activity, HRV16 [15]: 0.98
Anti-Rhinovirus activity, HRV21 [16]: 0.11
Anti-Rhinovirus activity, HRV29 [17]: 0.43
Anti-Rhinovirus activity, HRV31 [18]: 0.13
Anti-Rhinovirus activity, HRV32 [19]: 0.30
Anti-Rhinovirus activity, HRV33 [20]: 0.097
Anti-Rhinovirus activity, HRV36 [21]: 0.16
Anti-Rhinovirus activity, HRV39 [22]: 0.38
Anti-Rhinovirus activity, HRV41 [23]: 0.064
Anti-Rhinovirus activity, HRV50 [24]: 0.12
Anti-Rhinovirus activity, HRV61 [25]: 0.28
Anti-Rhinovirus activity, Clinical isolated strain [26]: 0.50
Cytotoxicity CC50 HeLa [27]: >2.5 µg/mL
Cytotoxicity CC50 HeLa-S3 [28]: >2.5 µg/mL
Cytotoxicity CC50 HeLa(Ohio) [29]: >2.5 µg/mL

— patent publication US7109338B2, “1,2-disubstituted 1,4-dihydro-4-oxoquinoline compounds” (priority 1999, dated 2006)
